Results: patent US20170304288A1, “Formulations of Methionine Aminopeptidase Inhibitors for Treating Infectious Diseases” (Texas Southern University, priority 2013, published 2017)
In brackets after ≈: the same amount, converted by molar mass. Where two headings read alike, the source gives them in different places. Marks after values point to notes of the source that are not given here.

Assays:
E. faecalis OG1RF = assay: Liquid-based C. elegans infection model, survival; type: in vivo, Enterococcus faecalis
[1] = Pharmacokinetic study in male Sprague Dawley rats; type: in vivo; settings: rat; for Cmax / clearance / bioavailability / half-life / Vd: male, Sprague Dawley, plasma; for bioavailability: read-out: Fabs (absolute bioavailability); for Vd: read-out: VD (volume of distribution)
Text: Pharmacokinetic evaluation elucidates the fate of compound 5 in living systems. The pharmacokinetic study of compound 5 was also a means to verify the applicability of the LC-MS/MS assay method and the formulations. An adult male Sprague Dawley rat model was the preferred biological system for this experiment based on the similarity to humans in metabolism and minimal interference of hormones with metabolism. Briefly, male Sprague Dawley rats (n=4 for IV group, n=3 for subcutaneous and oral groups each, body weight: 300-350 g) were cannulated through the jugular vein under anesthesia (using a cocktail of ketamine: acepromazine: xylazine at a ratio of 50: 3.3: 3.3 mg/kg). On the following day, the optimal IV co-solvent formulation was diluted five times with normal saline to 1 mg/mL. The formulation for subcutaneous and oral administration was diluted with equal amount of normal saline to 3.75 mg/mL. Each rat was administered a 2 mg/kg IV bolus dose, 10 mg/kg subcutaneous dose or 20 mg/kg oral dose of compound 5. Heparinized blood samples were withdrawn from each rat at 5, 10, 15, 30 mins, 1, 2, 4, 6, 8, 12, 24, 48, 72, 96, 144 h after injection. The blood samples were centrifuged at 14,000 rpm for 6 min and the supernatant plasma obtained and stored at −80° C. until LC-MS/MS analysis for the concentration of compound 5. Urine samples were also collected at 0, 4, 8, 12, and 24 h. The plasma and urine samples were analyzed (within 7 days) using the developed LC/MS/MS method to determine the concentration of compound 5. FIG. 19A-D show plots of the plasma concentration of compound 5 against time.
The pharmacokinetic parameters for each rat were determined with Phoenix WinNonlin 6.3 software (Pharsight Corporation, Mountain View, Calif., USA) a non-compartmental analysis and a two compartment, which best described the fit for the IV bolus administration of compound 5, based on the observed and predicted fits of the plasma concentration versus time plot, the reduction in the sums of squares, and the Akaike's information criterion (AIC) for comparing compartmental models (5).
The weighting scheme of concentration^−2 (Y^−2) was used to determine the model that best fits the individual profiles. […] The plasma concentration -time profiling following 20 mg/Kg oral and 10 mg/kg subcutaneous doses of compound 5 is shown in FIG. 22C.

plasma protein = assay: Plasma protein binding in rat plasma
E. faecalis V583 = assay: Assay of E. faecalis inhibition (MIC) in BHI culture
[2] = iv, 2 mg/kg, Intravenous (Dose: 2 mg/kg), non-compartmental analysis
[3] = iv, 2 mg/kg, Intravenous (Dose: 2 mg/kg), two compartment model
[4] = po, 20 mg/kg, Oral (Dose: 20 mg/kg), non-compartmental analysis
[5] = sc, 10 mg/kg, Subcutaneous (Dose: 10 mg/kg), non-compartmental analysis
[6] = Intravenous (Dose: 2 mg/kg), two compartment model
[7] = Oral (Dose: 20 mg/kg), non-compartmental analysis
[8] = Oral (Dose: 20 mg/kg), two compartment model
[9] = Subcutaneous (Dose: 10 mg/kg), non-compartmental analysis
[10] = Subcutaneous (Dose: 10 mg/kg), two compartment model

Compound: Oc1c(Br)cc(Cl)c2cccnc12 [Compound 5, 7-bromo-5-chloroquinolin-8-ol]
- survival of the nematodes at Maximum protective concentration (E. faecalis OG1RF; 4×10^−4 μg/mL): ~80%
- survival of infected animals compared to tetracycline (E. faecalis OG1RF; 4×10^−5 μg/mL to 4×10^−4 μg/mL): survived just as well, or better, than animals treated with tetracycline
- MPC (Minimum Protective Concentration) OG1RF (E. faecalis OG1RF; C. elegans): 4e-11 µg/mL
- MmaxPC (Maximum Protective Concentration) OG1RF (E. faecalis OG1RF; C. elegans): 0.0004 µg/mL
- Cmax [1, 2]: 2560 ± 480 ng/mL
- clearance ([1]; iv, 2 mg/kg, Intravenous (Dose: 2 mg/kg), non-compartmental analysis, read-out: Cl- (total body clearance) (converted)): 1.67 mL/min/kg
- bioavailability [1, 2]: 100%
- half-life ([1]; iv, 2 mg/kg, Intravenous (Dose: 2 mg/kg), non-compartmental analysis, read-out: T1/2 (elimination half-life) (converted)): 176 ± 30.5 h
- Vd [1, 2]: 24.6 ± 1.19 L/kg
- Cmax [1, 3]: 2600 ± 560 ng/mL
- clearance ([1]; iv, 2 mg/kg, Intravenous (Dose: 2 mg/kg), two compartment model, read-out: Cl (total body clearance) (converted)): 2.17 mL/min/kg
- half-life ([1]; iv, 2 mg/kg, Intravenous (Dose: 2 mg/kg), two compartment model, read-out: T1/2α (distribution half-life) (converted)): 0.19 ± 0.02 h
- half-life ([1]; iv, 2 mg/kg, Intravenous (Dose: 2 mg/kg), two compartment model, read-out: T1/2β (elimination half-life) (converted)): 109 ± 19.4 h
- Vd [1, 3]: 21.6 ± 1.32 L/kg
- Cmax [1, 4]: 1730 ± 380 ng/mL
- bioavailability [1, 4]: 4.6%
- half-life ([1]; po, 20 mg/kg, Oral (Dose: 20 mg/kg), non-compartmental analysis, read-out: T1/2 (elimination half-life) (converted)): 8.21 h
- Cmax ([1]; po, 20 mg/kg, Oral (Dose: 20 mg/kg), two compartment model): 1670 ± 600 ng/mL
- half-life ([1]; po, 20 mg/kg, Oral (Dose: 20 mg/kg), two compartment model, read-out: T1/2abs (absorption half-life) (converted)): 0.14 ± 0.02 h
- half-life ([1]; po, 20 mg/kg, Oral (Dose: 20 mg/kg), two compartment model, read-out: T1/2α (distribution half-life) (converted)): 0.33 ± 0.01 h
- half-life ([1]; po, 20 mg/kg, Oral (Dose: 20 mg/kg), two compartment model, read-out: T1/2β (elimination half-life) (converted)): 7.05 ± 1.88 h
- Cmax [1, 5]: 910 ± 70 ng/mL
- bioavailability [1, 5]: 15.7%
- half-life ([1]; sc, 10 mg/kg, Subcutaneous (Dose: 10 mg/kg), non-compartmental analysis, read-out: T1/2 (elimination half-life) (converted)): 36.8 ± 2.87 h
- Cmax ([1]; sc, 10 mg/kg, Subcutaneous (Dose: 10 mg/kg), two compartment model): 970 ± 50 ng/mL
- half-life ([1]; sc, 10 mg/kg, Subcutaneous (Dose: 10 mg/kg), two compartment model, read-out: T1/2abs (absorption half-life) (converted)): 0.376 ± 0.01 h
- half-life ([1]; sc, 10 mg/kg, Subcutaneous (Dose: 10 mg/kg), two compartment model, read-out: T1/2α (distribution half-life) (converted)): 1.66 ± 0.65 h
- half-life ([1]; sc, 10 mg/kg, Subcutaneous (Dose: 10 mg/kg), two compartment model, read-out: T1/2β (elimination half-life) (converted)): 51.5 ± 16.1 h
- AUC0-∞ ([1]; Intravenous (Dose: 2 mg/kg), non-compartmental analysis): 10.3 ± 1 mg/L/h
- A (coefficient of α-phase) [1, 6]: 2.51 ± 0.56 mg/L
- AUC0-∞ [1, 6]: 15.7 ± 1.96 mg/L/h
- B (coefficient of β-phase) [1, 6]: 0.09 ± 0.01 mg/L
- AUC0-∞ [1, 7]: 4.73 ± 0.97^a mg/L/hr
- Cl- (total body clearance) [1, 7]: 4.72 ± 1.20 L/kg/h
- VD (volume of distribution) [1, 7]: 63.9 ± 34.3 L/kg
- Fabs (absolute bioavailability) ([1]; Oral (Dose: 20 mg/kg), non-compartmental analysis, 20 mg/kg): 4.59 ± 1.33%
- A (coefficient of α-phase) [1, 8]: 4.29 ± 0.42 mg/L
- AUC0-∞ [1, 8]: 4.27 ± 1.69 mg/L/h
- B (coefficient of β-phase) [1, 8]: 0.37 ± 0.24 mg/L
- Cl (total body clearance) [1, 8]: 92.3 ± 36.3 mL/min/kg
- VD (volume of distribution) [1, 8]: 34.8 ± 21.8 L/kg
- AUC0-∞ [1, 9]: 8.14 ± 0.23^c mg/L/hr
- Cl- (total body clearance) [1, 9]: 1.23 ± 0.04^c L/kg/hr
- VD (volume of distribution) [1, 9]: 65.0 ± 3.77^c L/kg
- A (coefficient of α-phase) [1, 10]: 2.05 ± 0.57 mg/L
- AUC0-∞ [1, 10]: 8.68 ± 0.92 mg/L/h
- B (coefficient of β-phase) [1, 10]: 0.08 ± 0.02 mg/L
- Cl (total body clearance) [1, 10]: 19.5 ± 2 mL/min/kg
- VD (volume of distribution) [1, 10]: 45.8 ± 5.95 L/kg
- Bound fraction (%) ± SD (plasma protein; Concentration 5 μg/mL): 91.0 ± 0.6%
- Bound fraction (%) ± SD (plasma protein; Concentration 25 μg/mL): 96.3 ± 1.4%
- Bound fraction (%) ± SD (plasma protein; Concentration 50 μg/mL): 98.3 ± 0.3%
- Minimum Inhibitory Concentration MIC30 V583 (E. faecalis V583): 0.25 to 0.50 µg/mL
- MIC (E. faecalis V583; Enterococcus faecalis, V583, read-out: Minimum Inhibitory Concentration MIC30 V583): 0.25 to 0.5 µg/mL (≈ 0.967 to 1.93 µM)
